In experiment [1] the test system is MIA PaCa-2. The experiment can be described thus: Upregulation of GADD45A gene expression in human MIAPaCa2 cells at cytotoxic concentration after 24 hrs by qPCR analysis. In kind it is functional, cell-based. (Quantitative PCR measures a nucleic acid by following its amplification.)
In experiment [2] the test system is MIA PaCa-2. The experiment can be described thus: Downregulation of RASSF1 gene expression in human MIAPaCa2 cells at 20 to 80 nM after 24 hrs by qPCR analysis relative to solvent-treated control. It counts as functional.
Experiment [3] concerns MIA PaCa-2. The experiment can be described thus: Upregulation of NTHL1 gene expression in human MIAPaCa2 cells at sublethal concentration after 24 hrs by qPCR analysis. It counts as functional, cell-based.
Experiment [4] relates to MIA PaCa-2. The experiment in a line: Cytotoxicity against human MIAPaCa2 cells assessed as growth inhibition at 5 to 40 nM up to 96 hrs by microscopic analysis. It counts as functional, cell-based.
Experiment [5] has as its system MIA PaCa-2. The experiment in a line: Downregulation of PPM1D gene expression in human MIAPaCa2 cells at subcytotoxic concentration after 24 hrs by qPCR analysis. It counts as functional, cell-based.
The test system of experiment [6] is MIA PaCa-2. The experiment can be described thus: Downregulation of HUS1 gene expression in human MIAPaCa2 cells at 20 to 160 nM after 24 hrs by qPCR analysis relative to solvent-treated control. It counts as functional, cell-based.
Experiment [7] has as its system MIA PaCa-2. The experiment can be described thus: Induction of senescence in human MIAPaCa2 cells at 3.3 to 6.6 nM after 7 days by beta-galactosidase assay relative to vehicle-treated control. In kind it is functional.
A further experiment deals with MCF7. The experiment can be described thus: Cytotoxicity against human MCF7 cells assessed as growth inhibition after 96 hrs by SRB assay. The note with it: MCF7, 96 h. It counts as functional, cell-based.
Experiment [8] concerns MIA PaCa-2. The experiment in a line: Downregulation of NBN gene expression in human MIAPaCa2 cells at 20 to 160 nM after 24 hrs by qPCR analysis relative to solvent-treated control. It counts as functional, cell-based.
The test system of experiment [9] is MIA PaCa-2. The experiment can be described thus: Upregulation of DDIT3 gene expression in human MIAPaCa2 cells at cytotoxic concentration after 24 hrs by qPCR analysis. It counts as functional, cell-based.
For experiment [10], the system named is MIA PaCa-2. The experiment can be described thus: Downregulation of RAD50 gene expression in human MIAPaCa2 cells at 20 to 160 nM after 24 hrs by qPCR analysis relative to solvent-treated control. In kind it is functional, cell-based.
Another experiment has as its system unidentified. The experiment in a line: Stabilization of HSP90a promoter sequence 5'-FAM-d(GGGCCAAAGGGAAGGGGTGGG)-TAMRA-3' (unknown origin) assessed as melting temperature at 1 uM by FRET assay.
A further experiment relates to WI-38. The experiment in a line: Cytotoxicity against human WI38 cells assessed as growth inhibition after 96 hrs by SRB assay. It counts as cell-based. The note with it: WI-38, 96 h. A general note: The SRB assay estimates cell density from bound dye.

The structures appear in SMILES notation. The source made the active and inactive calls. No cut-off for these calls is given here.

The IC50 is the concentration at which inhibition is half-maximal. One may read the ΔTm as the change in melting temperature against a reference sample. As to `CN1CCN(CCCNc2cc3c4c(c(NCCCN5CCN(C)CC5)cc5c4c2C(=O)N(CCCN2CCOCC2)C5=O)C(=O)N(CCCN2CCOCC2)C3=O)CC1`, the outcome in the experiment on MIA PaCa-2 [1], in the experiment with MIA PaCa-2 [6], in the experiment on MIA PaCa-2 [8], in the experiment on MIA PaCa-2 [9] and with MIA PaCa-2 [10] was Active. In addition, the “fold change (FC)” value with MIA PaCa-2 [2] is greater than 2. The outcome in the experiment on MIA PaCa-2 [3] and in the experiment with MIA PaCa-2 [5] was inactive. Besides, the “growth inhibition (GI)” value with MIA PaCa-2 [4] was “Active”. The compound also came in with an Activity in the experiment with MIA PaCa-2 [7] of 50%. In addition, the results for the IC50 with MCF7 and with WI-38 were 70 nM and 230 nM, respectively. Also, the ΔTm in the experiment with unidentified came out at 33.1 °C.
